Test results from article PMC9865645, “The Impact of N^ε-Acryloyllysine Piperazides on the Conformational Dynamics of Transglutaminase 2” (International Journal of Molecular Sciences, 2023).

What was measured:
His6-hTGase 2 = biological target: T1, His6-hTGase 2 (Homo sapiens, UniProt P21980); assay: fluorimetric activity assay (substrate Z-Glu(HMC)-Gly-OH) for kinact/KI; assay type: biochemical; conditions: mean (SEM) of two to four experiments
T1 construct: purchased Zedira (Darmstadt, Germany) T022, lot 0716a
T1 sequence (P21980 1-687): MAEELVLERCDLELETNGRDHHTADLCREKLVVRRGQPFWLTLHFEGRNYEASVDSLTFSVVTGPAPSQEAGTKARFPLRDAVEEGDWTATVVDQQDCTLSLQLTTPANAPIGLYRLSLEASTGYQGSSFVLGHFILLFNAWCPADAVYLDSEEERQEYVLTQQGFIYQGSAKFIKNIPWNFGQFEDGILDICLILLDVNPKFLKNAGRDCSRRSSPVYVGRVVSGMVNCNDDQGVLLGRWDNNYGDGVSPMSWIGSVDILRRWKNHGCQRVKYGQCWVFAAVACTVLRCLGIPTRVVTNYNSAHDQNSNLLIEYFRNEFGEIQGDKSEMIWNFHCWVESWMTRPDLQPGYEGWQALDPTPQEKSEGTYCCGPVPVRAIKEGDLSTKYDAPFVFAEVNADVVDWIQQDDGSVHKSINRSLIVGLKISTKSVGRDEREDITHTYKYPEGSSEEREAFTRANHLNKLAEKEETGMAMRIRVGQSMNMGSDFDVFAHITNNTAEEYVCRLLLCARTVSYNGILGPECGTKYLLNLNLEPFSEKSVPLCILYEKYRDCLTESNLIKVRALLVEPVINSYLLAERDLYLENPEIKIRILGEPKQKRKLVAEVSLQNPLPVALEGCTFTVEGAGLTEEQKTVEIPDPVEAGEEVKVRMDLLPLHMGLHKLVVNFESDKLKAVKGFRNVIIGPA

[1] = biological target: T2, in-house produced N-terminally Twin-Strep-tagged hTGase 2 (Homo sapiens, UniProt P21980); assay: fluorescence anisotropy (FA)-based transamidase activity assay, in-house Twin-Strep-tagged hTGase 2; assay type: biochemical
T2 construct: thrombin cleavage site (N); made in house; host or cells: E. coli BL21(DE3)
T2 sequence (P21980 1-687): T1 sequence (P21980 1-687)
From the text: The gene of hTGase 2 (Uniprot ID: P21980) with an N-terminal thrombin cleavage site was cloned into the pPSG-IBA105 vector containing the sequence for an N-terminal Twin-Strep-tag (IBA Lifesciences GmbH, Göttingen, Germany) to obtain the final plasmid pPSG-IBA105/TCS-hTGase 2. The plasmid construct was verified by DNA sequencing (Eurofins Genomics Germany GmbH) and then transformed into E. coli BL21(DE3) by the heat–shock method. hTGase 2-expressing E. coli cells were lysed by lysozyme treatment, and hTGase 2 was purified by affinity chromatography on an ÄKTA purifier UPC 10 FPLC equipped with a Strep-Tactin XT cartridge (GE Healthcare Europe GmbH, Freiburg, Germany). Identity and purity of self-produced hTGase 2 were verified by SDS-PAGE and Western Blot analysis, respectively. Protein concentration was determined according to Bradford. More detailed descriptions of the generation and characterization of the final plasmid construct pPSG-IBA105/TCS-hTGase 2 and the expression, purification, and characterization of the self-produced hTGase 2 protein will be published elsewhere (manuscript in preparation).
For the analysis of inhibitor 1 on self-produced hTGase 2, 2 µg/mL of the enzyme was used to guarantee comparability with the value reported by Wodtke et al., whereas all other experiments were performed with 5 µg/mL of either commercial or self-produced hTGase 2 (corresponding to 64.1 and 61.6 nM, respectively, when assuming 100% active protein). Parallel and perpendicular fluorescence intensities were measured over 1190 s in 35 s intervals (1) or over 1776 s in 48 s intervals (2, 3) and used to calculate the FA. Data of FA for the first 875 s (1) or 384 s (2, 3) were analyzed by linear regression, with slopes corresponding to enzymatic rates. Rates in the presence of inhibitor were normalized by dividing them by the respective rate in the absence of inhibitor, and normalized rates were analyzed according to Equation (S29) in Supplementary Materials to calculate values of IC50. Data analysis was performed with Microsoft Excel (Microsoft Office Professional Plus 2016, Microsoft® Corporation, USA) and GraphPad Prism version 5.03 or version 6.07 for Windows (GraphPad Software, La Jolla, CA, USA).

kinact/KI (His6-hTGase 2): 8340 M⁻¹ s⁻¹
IC50 ([1]; 5 min pre-incubation of enzyme and inhibitor, mean (SEM) of three experiments): 0.116 µM
IC50 ([1]; 30 min pre-incubation, hTGase 2 (in-house) 61.6 nM, mean (SEM)): 0.0352 µM
SMILES: C=CC(=O)NCCCC[C@H](NC(=O)Cc1ccccc1I)C(=O)N1CCN(c2ccc([N+](=O)[O-])nc2)CC1 [Compound 2, N^α-(2-Iodophenylacetyl)-N^ε-acryloyl-L-lysin-4-(2-nitropyridin-5-yl)piperazide]
